Results taken from patent US10301344B2, “L-proline complex of sodium-glucose cotransporter 2 inhibitor, monohydrate and crystal form thereof” (Jiangsu Hengrui Medicine Co., Ltd., priority 2014, dated 2019).

Experiment: Development form properties of the free compound and the complex (hygroscopicity, stability)

Compound: 1,6-anhydro-1-C-{4-chloro-3-[(3-fluoro-4-ethoxyphenyl)methyl]phenyl}-5-C-(hydroxymethyl)-β-L-idopyranose L-proline complex [complex of formula (I)]
- stability in comparison to the free compound: improved stability

Compound: CCOc1ccc(Cc2cc(C34OC[C@](CO)(O3)C(O)[C@H](O)C4O)ccc2Cl)cc1F (stereo in doubt) [1,6-anhydro-1-C-{4-chloro-3-[(3-fluoro-4-ethoxyphenyl)methyl]phenyl}-5-C-(hydroxymethyl)-β-L-idopyranose]
- hygroscopic properties (free compound, background statement): hygroscopic
